Experimental data published in paper PMC9886550, “Molecular mechanism of topoisomerase poisoning by the peptide antibiotic albicidin” (Nature Catalysis, 2023).
Where “and” joins values, the source holds several entries; their conditions need not be identical. Equal entries are not always repeated.

How the values were obtained:
Type in all cases: biochemical
[1] = biological target: E. coli Topo IV (Escherichia coli, UniProt P0AFI2+P20083); experiment: Topo IV cleavage assay (cleavage complex stabilization); conditions: for stabilization of the cleavage complex with Topo IV: in words
E. coli Topo IV, sequence (P0AFI2 whole entry): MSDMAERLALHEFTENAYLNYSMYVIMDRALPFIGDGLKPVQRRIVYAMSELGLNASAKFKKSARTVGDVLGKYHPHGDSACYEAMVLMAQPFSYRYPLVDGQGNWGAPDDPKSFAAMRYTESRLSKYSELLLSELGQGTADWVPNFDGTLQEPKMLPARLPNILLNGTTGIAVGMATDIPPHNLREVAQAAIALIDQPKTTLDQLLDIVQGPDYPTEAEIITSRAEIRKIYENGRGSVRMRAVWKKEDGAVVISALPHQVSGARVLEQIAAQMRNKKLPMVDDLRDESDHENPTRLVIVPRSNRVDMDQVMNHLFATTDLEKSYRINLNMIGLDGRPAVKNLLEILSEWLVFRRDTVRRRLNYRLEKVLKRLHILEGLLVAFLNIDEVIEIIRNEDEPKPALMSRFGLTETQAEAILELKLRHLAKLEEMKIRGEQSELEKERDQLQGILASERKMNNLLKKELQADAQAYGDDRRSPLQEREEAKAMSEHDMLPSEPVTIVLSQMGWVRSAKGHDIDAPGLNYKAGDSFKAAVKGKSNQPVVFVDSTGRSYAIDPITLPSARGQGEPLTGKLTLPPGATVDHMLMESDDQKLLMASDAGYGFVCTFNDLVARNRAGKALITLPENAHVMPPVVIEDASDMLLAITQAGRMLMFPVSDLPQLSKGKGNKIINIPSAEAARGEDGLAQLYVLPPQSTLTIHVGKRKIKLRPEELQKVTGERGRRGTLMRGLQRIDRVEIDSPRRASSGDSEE
E. coli Topo IV, sequence (P20083 whole entry): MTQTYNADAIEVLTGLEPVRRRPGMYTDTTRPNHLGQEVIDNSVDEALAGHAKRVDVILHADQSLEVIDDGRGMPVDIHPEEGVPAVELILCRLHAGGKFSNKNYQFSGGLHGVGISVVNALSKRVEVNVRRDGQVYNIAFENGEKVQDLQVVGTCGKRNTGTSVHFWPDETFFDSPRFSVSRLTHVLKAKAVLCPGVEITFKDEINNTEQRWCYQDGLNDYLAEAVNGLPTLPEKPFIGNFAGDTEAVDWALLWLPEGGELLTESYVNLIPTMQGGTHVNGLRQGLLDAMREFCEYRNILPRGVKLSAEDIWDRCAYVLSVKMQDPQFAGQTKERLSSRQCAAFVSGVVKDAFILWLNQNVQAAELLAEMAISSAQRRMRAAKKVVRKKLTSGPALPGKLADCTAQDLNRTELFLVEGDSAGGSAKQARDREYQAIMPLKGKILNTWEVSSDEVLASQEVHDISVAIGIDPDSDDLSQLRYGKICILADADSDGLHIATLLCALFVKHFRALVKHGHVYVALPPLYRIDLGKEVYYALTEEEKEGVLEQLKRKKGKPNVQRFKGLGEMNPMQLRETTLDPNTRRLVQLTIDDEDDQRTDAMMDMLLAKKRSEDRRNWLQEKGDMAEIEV
Protocol: Topo IV cleavage assays were set up in the same way as relaxation assays with some modifications. The concentration of enzyme was increased by 20% and cleavage complexes were trapped by the addition of 0.2% SDS and proteinase K (0.2 mg ml^−1) and further incubation at 37 °C for 30 min. Reactions were stopped in the same way as supercoiling assays.
(§1) Results were visualized by agarose gel electrophoresis: 1% agarose Tris-acetate-EDTA (TAE) gels were run without ethidium bromide (supercoiling) or with 10 µg ml^−1 ethidium bromide (cleavage) at 8 V cm^−1.
Supplementary Figure 11. Activity of albicidin and Albi-1/2/3 on E. coli […]
Cleavage activity of E. coli topo IV in the presence of albicidin, Albi-1, Albi-2 and Albi-3. First lane: negatively supercoiled pBR322; second lane: innate cleavage activity of E. coli topo IV (15 nM); third lane: effect of 20 µM CFX; subsequent lanes: effect of increasing compound concentration (0.1, 1, 10, 100 µM). […]
concentration. All experiments were carried out in triplicates and representative gels […]
(1 picture or pasted object on this page, not shown here)

[2] = biological target: T1, WT E. coli gyrase (Escherichia coli, UniProt P0AES4+P0AES6); experiment: biochemical; conditions: for % maximal cleavage: GyraseWT, average of 3 independent assays; for EC50: Gyrase^WT, mean ± s.d. of triplicate, read-out: CC50 (the source's name); for % cleaved DNA Average: WT Gyrase
T1 construct: alternative cryo-EM approach involving full-length E. coli gyrase; 10-His (cleaved yes); Twin-Strep (cleaved yes); made in house
Protocol: (§2) For DNA gyrase supercoiling assays to characterize gyrase mutants, 15 µl reactions were set up containing 250 ng of relaxed DNA, E. coli gyrase supercoiling buffer (35 mM Tris–Cl pH 7.5, 24 mM KCl, 4 mM MgCl2, 2 mM DTT, 1.8 mM spermidine, 1 mM ATP, 6.0% (w/v) glycerol, and 0.1 mg ml^−1 BSA), gyrase subunits and inhibitors. Concentrations of enzyme and inhibitor are stated in the figure legends. Inhibitors were diluted in the following way to reduce the chance of precipitation: stock compound in 100% DMSO was diluted to 5 mM in 100% DMSO. This compound solution was diluted to 1 mM by stepwise addition of 1 µl of 50% DMSO with thorough mixing via pipetting after each addition. All subsequent dilutions up to 100 µM were performed in the same way using H2O. After this point, compounds were stable and could be diluted in the normal way. Reactions were incubated at 37 °C for 30 min before stopping with 15 µl chloroform:isoamyl alcohol (24:1 v/v) and 15 µl of STEB (40% (w/v) sucrose, 100 mM Tris–Cl pH 8, 10 mM EDTA, 0.5 mg ml^−1 bromophenol blue).
(§3) Cleavage assays were set up in the same way as supercoiling assays with some modifications. The concentration of enzyme was increased 4-fold relative to the supercoiling assay and reactions were incubated for 1 h before addition of 0.2% SDS and proteinase K (0.2 mg ml^−1) and further incubation at 37 °C for 30 min to trap cleavage complexes. Reactions were stopped in the same way as supercoiling assays.
as §1
(§4) DNA cleavage gels were analysed using densitometry (ImageJ). Experiments were carried out in triplicate and expressed as mean ± s.d. Curves were fitted using OriginPro 2021 (Origin Lab) according to a modified Hill equation:1 y=cI+(cF−cI)[…]/(k^n+x^n) where y is the percentage of cleaved DNA, cI is the initial cleavage, cF is the final cleavage, k is the CC50 (the concentration of inhibitor that results in cleavage of 50% of DNA), n is a slope factor and x is the inhibitor concentration.

[3] = biological target: T2, E. coli gyrase GyrA^A67Q (Escherichia coli, UniProt P0AES4+P0AES6, A67Q); experiment: DNA gyrase cleavage assay (CC50, % cleaved DNA); conditions: for % maximal cleavage: GyrAA67Q, average of 3 independent assays; for EC50: GyrA^A67Q, mean ± s.d. of triplicate
T2 construct: alternative cryo-EM approach involving full-length E. coli gyrase; 10-His (cleaved yes); Twin-Strep (cleaved yes); made in house
Protocol: as §2, §3, §1, §4

[4] = biological target: T3, E. coli gyrase GyrA^S83L (Escherichia coli, UniProt P0AES4+P0AES6, S83L); experiment: DNA gyrase cleavage assay (CC50, % cleaved DNA); conditions: for % maximal cleavage: GyrAS83L, average of 3 independent assays; for EC50: GyrA^S83L, mean ± s.d. of triplicate
T3 construct: alternative cryo-EM approach involving full-length E. coli gyrase; 10-His (cleaved yes); Twin-Strep (cleaved yes); made in house
Protocol: as §2, §3, §1, §4

[5] = biological target: T4, E. coli gyrase GyrB^K447W (Escherichia coli, UniProt P0AES4+P0AES6, K447W); experiment: DNA gyrase cleavage assay (CC50, % cleaved DNA); conditions: for % maximal cleavage: GyrBK447W, average of 3 independent assays; for EC50: GyrB^K447W, mean ± s.d. of triplicate
T4 construct: alternative cryo-EM approach involving full-length E. coli gyrase; 10-His (cleaved yes); Twin-Strep (cleaved yes); made in house
Protocol: as §2, §3, §1, §4

[6] = biological target: T5, E. coli gyrase GyrA^V70A (Escherichia coli, UniProt P0AES4+P0AES6, V70A); experiment: DNA gyrase cleavage assay (CC50, % cleaved DNA); conditions: for % maximal cleavage: GyrAV70A, average of 3 independent assays; for EC50: GyrA^V70A, mean ± s.d. of triplicate
T5 construct: alternative cryo-EM approach involving full-length E. coli gyrase; 10-His (cleaved yes); Twin-Strep (cleaved yes); made in house
Protocol: as §2, §3, §1, §4

[7] = biological target: T6, E. coli gyrase GyrA^M120A (Escherichia coli, UniProt P0AES4+P0AES6, M120A); experiment: DNA gyrase cleavage assay (CC50, % cleaved DNA); conditions: for % maximal cleavage: GyrAM120A, average of 3 independent assays; for EC50: GyrA^M120A, mean ± s.d. of triplicate
T6 construct: alternative cryo-EM approach involving full-length E. coli gyrase; 10-His (cleaved yes); Twin-Strep (cleaved yes); made in house
Protocol: as §2, §3, §1, §4

SMILES: CC(C)Oc1c(NC(=O)c2ccc(NC(=O)[C@H](Cc3c[nH]nn3)NC(=O)c3ccc(NC(=O)c4ccc(C#N)cc4)cn3)cn2)ccc(C(=O)Nc2ccc(C(=O)O)cc2)c1O [Albi-1]
- concentration at which a linear DNA band could be observed ([1]; Topo IV cleavage complex stabilization, tested 0.1, 1, 10, 100 µM): 1 µM
- stabilization of the cleavage complex with Topo IV [1]: could stabilize the cleavage complex
- % maximal cleavage [2]: 73±6%
- EC50 [2]: 8 ± 2.7 nM
- % maximal cleavage [3]: 96±8%
- EC50 [3]: 181 ± 67 nM
- % maximal cleavage [4]: 80±14%
- EC50 [4]: 10 ± 1.5 nM
- % maximal cleavage [5]: 83±3%
- increase in CC50 ([5]; GyrB^K447W vs WT gyrase, 60 min): more than 50 fold
- EC50 [5]: 412 ± 88 nM
- % maximal cleavage [6]: 90±2%
- EC50 [6]: 16 ± 1.3 nM
- % maximal cleavage [7]: 68±3%
- EC50 [7]: 15 ± 1.5 nM

SMILES: COc1c(NC(=O)c2ccc(NC(=O)c3ccc(NC(=O)[C@H](Cc4c[nH]nn4)NC(=O)c4ccc(NC(=O)c5ccc6cc(O)ccc6c5)cc4)cn3)c(OCCN)c2O)ccc(C(=O)O)c1O [Albi-2]
- % maximal cleavage [2]: 78±2%
- % maximal cleavage [4]: 72±7%
- EC50 [4]: 208 ± 34 nM
- % maximal cleavage [5]: 59±6%
- EC50 [5]: 251 ± 40 nM
- % maximal cleavage [6]: 58±2%
- EC50 [6]: 189 ± 49 nM
- % maximal cleavage [7]: 59±17%
- EC50 [7]: 160 ± 15 nM

SMILES: COc1c(NC(=O)c2ccc(NC(=O)c3ccc(NC(=O)[C@H](Cc4c[nH]nn4)NC(=O)c4ccc(NC(=O)c5ccc6nc(C)ccc6c5)cc4)cn3)c(OC)c2O)ccc(C(=O)O)c1O [Albi-3]
- stabilization of the cleavage complex with Topo IV [1]: could stabilize the cleavage complex
- % cleaved DNA Average ([2]; Albi-3 0.001 µM): 5.372%
- % cleaved DNA Average ([2]; Albi-3 0.005 µM): 11.5375%
- % cleaved DNA Average ([2]; Albi-3 0.01 µM): 23.6152%
- % cleaved DNA Average ([2]; Albi-3 0.05 µM): 37.3347%
- % cleaved DNA Average ([2]; Albi-3 0.1 µM): 57.4394%
- % cleaved DNA Average ([2]; Albi-3 0.5 µM): 62.8438%
- % cleaved DNA Average ([2]; Albi-3 1 µM): 66.0682%
- % cleaved DNA Average ([2]; Albi-3 5 µM): 61.2004%
- % cleaved DNA Average ([2]; Albi-3 10 µM): 61.7202%
- % maximal cleavage [2]: 66±4%
- EC50 [2]: 25 ± 5.3 nM
- % maximal cleavage [3]: 78±6%
- EC50 [3]: 328 ± 19 nM
- % maximal cleavage [4]: 85±7%
- EC50 [4]: 16 ± 4 nM
- % maximal cleavage [5]: 69±2% and 69%
- % maximal cleavage [6]: 63±2%
- EC50 [6]: 36 ± 8.6 nM
